Data on 7 compounds can be found in patent US6376485B1, “Benzoxazoles with PDE-inhibiting activity” (Byk Gulden Lomberg Chemische Fabrik GmbH, priority 1998, dated 2002).

By melting point is commonly meant the temperature of the solid-liquid transition.

The subject of one series is PDE4. As to the kind of experiment: Inhibition of PDE4 activity (method of Bauer and Schwabe, adapted to microtiter plates). The following applies: inhibitory concentration as -log IC50 (mol/l). The class given is biochemical. Here is the method:
The activity test was carried out according to the method of Bauer and Schwabe, which was adapted to microtiter plates (Naunyn-Schmiedeberg's Arch. Pharmacol. 1980, 311, 193-198). In this test, the PDE reaction takes place in the first step. In a second step, the resulting 5′-nucleotide is cleaved by a 5′-nucleotidase of the snake venom from Crotalus atrox to give the uncharged nucleoside. In the third step, the nucleoside is separated from the remaining charged substrate on ion-exchange columns. The columns are eluted directly into minivials to which 2 ml of scintillator fluid is additionally added for counting […].
The inhibitory values determined for the compounds according to the invention [inhibitory concentration as -log IC50 (mol/l)] results from the following Table A, in which the numbers of the compounds correspond to the numbers of the examples.

Compound `COc1ccc(C2(C#N)CCOCC2)c2nc(C(C)C)oc12` [Compound 2, 4a-Cyano-4e-(2-isopropyl-7-methoxybenzoxazol-4-yl)-tetrahydropyran] returned a melting point of 156.5 °C. Also, the “Inhibition of the PDE4 activity, -log IC50” value (shortened to “Inhibition … -log IC50”) in the series with PDE4 is 7.86 mol/l.
Taken in the same sequence, the figures for `COc1ccc(C2(C#N)CCOCC2)c2nc(C)oc12` [Compound 1, 4a-Cyano-4e-(2-methyl-7-methoxybenzoxazol-4-yl)tetrahydropyran] were 72 °C and 6.87 mol/l.
Taken in the same sequence, the figures for `COc1ccc(C2(C#N)CCC(O)CC2)c2nc(C(C)C)oc12` (stereo not drawn) [Compound 4, cis-4-Cyano-4-(2-isopropyl-7-methoxybenzoxazol-4-yl)cyclohexan-1-ol] were 116.5 °C and 7.77 mol/l.
Taken in the same sequence, the figures for `COc1ccc(C2(C#N)CCC(C(N)=O)CC2)c2nc(C(C)C)oc12` (stereo not drawn) [Compound 7, Cis-4-Cyano-4-(2-isopropyl-7-methoxybenzoxazol-4-yl)cyclohexane-1-carboxamide] were 228 °C and 7.65 mol/l.
`COc1ccc(C2(C#N)CCC(C(=O)O)CC2)c2nc(C(C)C)oc12` (stereo not drawn) [Compound 6, cis-4-Cyano-4-(2-isopropyl-7-methoxybenzoxazol-4-yl)cyclohexane-1-carboxylic acid] returned a melting point of 217.5 °C. In the series on PDE4, the “Inhibition … -log IC50” value is 7.69 mol/l.
The corresponding values for `COc1ccc(C2(C#N)CCC(=O)CC2)c2nc(C(C)C)oc12` [Compound 3, 4-Cyano-4-(2-isopropyl-7-methoxybenzoxazol-4-yl)cyclohexanone] are 118 °C and 6.96 mol/l.
Compound `COC(=O)C1CCC(C#N)(c2ccc(OC)c3oc(C(C)C)nc23)CC1` (stereo not drawn) [Compound 5, Methyl cis-4-cyano-(2-isopropyl-7-methoxybenzoxazol-4-yl)cyclohexane-1-carboxylate] had a melting point of 83 °C. In addition, the “Inhibition … -log IC50” value in the series on PDE4 came out at 6.46 mol/l.
